Where “and” joins values, the source holds several entries; their conditions need not be identical. Identical values can stand only once.

The test system of data set [1] is circadian rhythms of plasma cortisol and prolactin in adult female pigs. As to the kind of experiment: Circadian plasma cortisol and prolactin levels in pigs given bromocriptine implants. It is filed as in vivo, pig (swine). The following applies: for Plasma Cortisol Level: implant 10 mg/pig/day. On the procedure:
Adult female pigs, six in number, were given bromocryptine implants (10 mg/pig/day) lasting over a period of time while the pigs were subjected to daily periods of daylight and darkness (12:12). […] A control group of six pigs were similarly treated to periods of daylight and darkness except that no bromocryptine was administered to the pigs of the control group. The period of darkness was from 1800 to 0600, and the period of daylight from 0600 to 1800. Daily tests were made of the blood of the pigs at four hour intervals over a 14 day period to determine the plasma cortisol level (μg/dl) and plasma prolactin level […] of both groups. The average for each series of tests made on each group are given as follows: […]

The subject of a further data set is adult female pigs. As to the kind of experiment: Effects of bromocriptine implants on fat stores and plasma triglyceride, glucose and insulin in pigs. The format is in vivo, pig (swine). On the procedure: Adult female pigs, six in number, were given bromocryptine implants (10 mg/pig/day) lasting over a period of time while the pigs were subjected to daily periods of daylight and darkness (12:12). […] A control group of six pigs were similarly treated to periods of daylight and darkness except that no bromocryptine was administered to the pigs of the control group. The period of darkness was from 1800 to 0600, and the period of daylight from 0600 to 1800. Daily tests were made of the blood of the pigs at four hour intervals over a 14 day period to determine the plasma cortisol level (μg/dl) and plasma prolactin level […] of both groups. The average for each series of tests made on each group are given as follows:
Notes: Backfat thickness was used as an index in determining fat stores.
Plasma was sampled at 1600, 2000 and 2400 after two weeks of treatment. Each pig of the treatment group and control group was sampled.

The test system of the next data set is symptoms of diabetes. As to the kind of experiment: Oral bromocriptine in a diabetic (Example 2). It is filed as in vivo, human. The following applies: 1.25-2.50 mg/day orally just after awakening. On the procedure: At the beginning of the treatment, blood glucose concentration was shown by routine testing to be near 250 mg/dl. […] Fasting levels below 120 mg/dl are considered normal.

Data set [2] relates to Type II diabetes. As to the kind of experiment: Oral bromocriptine in a person treated with diabenase (Example 3). The format is in vivo, human. On the procedure: A person was being treated with a hypoglycemic agent (diabenase) which had reduced the blood glucose of the patient from 250 mg/dl to about 180 mg/dl during one year of treatment. […] Removal of the hypoglycemic agent allowed glucose levels to rise and remain near 100 mg/dl (a normal level) in the succeeding two months.

Data set [3] deals with Type II diabetes. In words: Oral bromocriptine in a diabetic (Example 4). The format is in vivo, human. The following applies: parlodel 2.5 mg/day orally, 2.5 months. Here is the method:
A person weighing nearly 300 pounds was known to be a diabetic but had resisted all previous admonitions for treatment. […] Body weight has dropped 22 pounds and plasma glucose levels decreased to 160 mg/dl.

The subject of data set [4] is noninsulin dependent (Type II) diabetes. In words: Timed oral bromocriptine in fifteen persons with noninsulin dependent (Type II) diabetes (Example 5). It is filed as in vivo, human. Particulars: for Body Fat Loss / Plasma Glucose (% initial) / Skinfold Measurements (% initial): p < 0.05. Here is the method:
The participants were carefully instructed not to alter their daily activity or eating habits during the course of treatment.
Skinfold thickness was measured on the left side of the body by a trained anthropometrist in four regions: biceps, triceps, subscapular, and suprailiac, following the recommendations of the International Biological Program. Because of its frequent use, percent body fat was estimated from the common logarithm of the sum of the four skinfolds, using the equations of Durnin and Rahman and of Siri. […] Skinfold measurements were taken initially and at weekly intervals by the same individual. Blood pressure was also determined at these times. Morning fasting plasma glucose in the diabetic group was determined initially and after 4-8 weeks.

The test system of a further data set is body fat stores. The following applies: injections at different times of day; cited from earlier work.
The mark [5] stands for this setting: parlodel 1.25-2.5 mg/day orally.
Where [6] appears, read: subjects on hypoglycemic drugs (8), 4-8 weeks.
Setting [7] is: subjects receiving insulin (7), 4-8 weeks.

Consider `CC(C)C[C@H]1C(=O)N2CCC[C@H]2[C@]2(O)O[C@](NC(=O)[C@@H]3C=C4c5cccc6[nH]c(Br)c(c56)C[C@H]4N(C)C3)(C(C)C)C(=O)N12` [bromocriptine, 2-bromo-alpha-ergocryptine], for which the “phase relationships of the circadian rhythms of plasma corticosteroid and prolactin concentrations” value in data set [1] (implant) is “altered the phase relationships”. In addition, the “Plasma Cortisol Level” value in data set [1] (LD 12:12, time 0400, control 5.5) worked out at 3.2 µg/dL; in data set [1] (LD 12:12, time 0800, control 4.8), 1.9 µg/dL; in data set [1] (LD 12:12, time 1200, control 3.4), 1.5 µg/dL; in data set [1] (LD 12:12, time 1600, control 1.6), 3.2 µg/dL; in data set [1] (LD 12:12, time 2000, control 1.9), 2.8 µg/dL; in data set [1] (LD 12:12, time 2400, control 2.7) it was 3.5 µg/dL. The molecule further displayed a Backfat in the data set with adult female pigs (10 mg/day/pig implant, 28 days after treatment) of 86 % control. Further, the “Triglyceride (plasma)” value with adult female pigs (10 mg/day/pig implant, two weeks, sampled 1600, 2000 and 2400, control 52 ± 8) is 27 ± 3 mg/dL. The “Glucose (plasma)” value in the data set on adult female pigs (10 mg/day/pig implant, two weeks, sampled 1600, 2000 and 2400, control 99 ± 5) was determined as 86 ± 3 mg/dL. Moreover, in the data set on adult female pigs (implant), the “reduction in plasma insulin concentration” value is “not statistically significant”. Besides, the “reduction of body fat stores” value with adult female pigs (implant, 28 day period of treatment) stood at 14%. Also, the “reduction of plasma glucose levels” value in the data set with adult female pigs (implant, early period of darkness (2000-2400)) was found to be 13%. Besides, the “reduction of plasma triglyceride concentration” value with adult female pigs (implant, near sunset) worked out at 48%. Also, the “reduction of body weight” value in the data set on symptoms of diabetes was “about 12%”; in the data set on Type II diabetes [2] (setting [5]), “about 10%”; in data set [4] (subjects taking hypoglycemic drugs, not statistically significant), 2.4 pounds per subject; in data set [4] (subjects taking insulin), “not at all reduced”. Further, the “reduction of indices of body fat” value with symptoms of diabetes was “about 12%”. In the data set with symptoms of diabetes (successive levels in following weeks, initial near 250 mg/dl), the blood glucose concentration was 180 mg/dL and 155 mg/dL and 135 mg/dL and 97 mg/dL and 101 mg/dL. Besides, the blood glucose level in the data set on Type II diabetes [2] (after removal of hypoglycemic agent, succeeding two months) is around 100 mg/dL; in the data set with Type II diabetes [2] (parlodel 1.25-2.5 mg/day orally, about an hour after awakening, with diabenase, 2 weeks, from about 180 mg/dl), 80 mg/dL. For the same molecule, the “reduction of body fat” value in the data set on Type II diabetes [2] (setting [5]) is listed as “about 10%”. This molecule also came in with a plasma glucose level in the data set with Type II diabetes [3] (initial near 350 mg/dl) of 160 mg/dL. The “drop in body weight” value in the data set on Type II diabetes [3] (two to three hours after awakening, initial nearly 300 pounds) stood at 22 pounds. For the same molecule, the transient anorexic effects result in data set [4] (1.25 mg for 2-3 days then 2.5 mg daily, oral) is “did not occur”. The “mild nausea, participants” value in data set [4] (1.25 mg for 2-3 days then 2.5 mg daily, oral, transient, first few days) is recorded as below 10%. In addition, in data set [4] (after 6 weeks without food restriction), the “reductions in body fat” value is on record as 4.4 % of the body weight. For the same molecule, the “blood glucose concentrations and skinfold measurements” value in data set [4] (all subjects, 4-8 weeks) is reported as “reduced in every diabetic subject”. Besides, the “doses of hypoglycemic drugs and insulin” value in data set [4] (during bromocriptine treatment) is recorded as “reduced in three other subjects”. In data set [4] (during bromocriptine treatment), the “oral hypoglycemic medication discontinued” value is “completely discontinued during bromocriptine treatment in three individuals”. Moreover, the “fat loss, average” value in data set [4] (present study) was 1.4 pounds per week. In addition, the “Body Fat, final” value amounted to 32.9 ± 2.0 % Body Weight in data set [4] (subjects on hypoglycemic drugs (8), 4-8 weeks, initial 36.5 ± 2.3, p < 0.05) and 31.7 ± 1.7 % Body Weight in data set [4] (subjects receiving insulin (7), 4-8 weeks, initial 33.4 ± 2.2, p < 0.05). In addition, the “Plasma Glucose, final (fasting)” value in data set [4] (subjects on hypoglycemic drugs (8), 4-8 weeks, initial 231 ± 19, p < 0.05) was 166 ± 19 mg/dL. Besides, in data set [4] (subjects on hypoglycemic drugs (8), 4-8 weeks, initial 255 ± 21), the “Total Body Weight, final” value is reported as 253 ± 20 pounds. Moreover, the “Loss of Body Weight” value in data set [4] (subjects on hypoglycemic drugs (8), 4-8 weeks, not statistically significant) is -2.4 ± 2.0 pounds; in data set [4] (setting [7]) it was -0.4 ± 2.0 pounds. Moreover, the “Body Fat Loss” value in data set [4] (setting [6]) is given as -10.0 ± 2.2 pounds; in data set [4] (setting [7]), -3.1 ± 0.9 pounds. For the same molecule, the “Plasma Glucose (% initial)” value in data set [4] (setting [6]) worked out at 72 ± 6 % initial; in data set [4] (setting [7]), 65 ± 8 % initial. For the same molecule, the “Skinfold Measurements (% initial)” value in data set [4] (setting [6]) is listed as 79 % initial; in data set [4] (setting [7]) it was 84 % initial. For the same molecule, in data set [4] (subjects taking hypoglycemic drugs, 4-8 weeks), the “mean loss of body fat” value was 10 pounds. Besides, the “mean reduction in skinfold measurements” value in data set [4] (subjects taking hypoglycemic drugs, four regions, 4-8 weeks) worked out at 21%. Besides, the “decline in total body fat” value in data set [4] (subjects taking hypoglycemic drugs, within 4 to 8 weeks) is on record as 10.7%. Besides, the “reduction in % body fat” value in data set [4] (subjects taking insulin) was 5.1. Moreover, in data set [4] (subjects taking insulin), the “reduction in body fat” value stood at 3.1 pounds. Further, in data set [4] (subjects taking insulin), the reduction in skinfold is listed as 16%. Besides, the “blood glucose levels after termination of bromocriptine” value in data set [4] (three individuals off oral hypoglycemic medication, at least two months after bromocriptine terminated) was below 120 mg/dL.

Turning to `CCCNC(=O)NS(=O)(=O)c1ccc(Cl)cc1` [diabenase], in the data set with Type II diabetes [2] (diabenase alone, one year of treatment, from 250 mg/dl), the blood glucose level entry was “about 180 mg/dl”.

B1: Prolactin: a hormone secreted by the pituitary (protein, UniProt P01236 29-227, looked up)
Prolactin: LPICPGGAARCQVTLRDLFDRAVVLSHYIHNLSSEMFSEFDKRYTHGRGFITKAINSCHTSSLATPEDKEQAQQMNQKDFLSLIVSILRSWNEPLYHLVTEVRGMQEAPEAILSKAVEIEEQTKRLLEGMELIVSQVHPETKENEIYPVWSGLPSLQMADEESRLSAYYNLLHCLRRDSHKIDNYLKLLKCRIIHNNNC
For B1, the stimulation of fattening result with body fat stores is recorded as “stimulate fattening only when injected at certain times of the day”.

These data come from patent US6004972A, “Therapeutic process for the treatment of the pathologies of type II diabetes” (The Board of Supervisiors of Louisiana State University and …, priority 1998, dated 1999).
